Columns and labels:
human GLP-1R [1] = biological target: human GLP-1R (Homo sapiens, UniProt P43220, G168S); assay: CHO GLP-1R Clone H6—Assay 1: HTRF cAMP cell-based functional agonist assay (high GLP-1R density); details: for EC50: read-out: Assay 1 EC50, CHO GLP-1R Clone H6, cAMP HTRF, geometric mean; for Emax: read-out: Assay 1 Emax (%), CHO GLP-1R Clone H6, relative to saturating concentration of full agonist GLP-1 (1 μM), arithmetic mean
human GLP-1R [2] = biological target: human GLP-1R (Homo sapiens (Human), UniProt P43220, L260F); assay: CHO GLP-1R Clone C6—Assay 2: HTRF cAMP cell-based functional agonist assay (low GLP-1R density); details: for EC50: CHO GLP-1R Clone C6, cAMP HTRF, geometric mean; for Emax: CHO GLP-1R Clone C6, relative to saturating concentration of full agonist GLP-1 (1 μM), arithmetic mean, read-out: Assay 2 Emax (%)
Sequence of human GLP-1R (Homo sapiens (Human), UniProt P43220, L260F) (P43220 24-463 L260F): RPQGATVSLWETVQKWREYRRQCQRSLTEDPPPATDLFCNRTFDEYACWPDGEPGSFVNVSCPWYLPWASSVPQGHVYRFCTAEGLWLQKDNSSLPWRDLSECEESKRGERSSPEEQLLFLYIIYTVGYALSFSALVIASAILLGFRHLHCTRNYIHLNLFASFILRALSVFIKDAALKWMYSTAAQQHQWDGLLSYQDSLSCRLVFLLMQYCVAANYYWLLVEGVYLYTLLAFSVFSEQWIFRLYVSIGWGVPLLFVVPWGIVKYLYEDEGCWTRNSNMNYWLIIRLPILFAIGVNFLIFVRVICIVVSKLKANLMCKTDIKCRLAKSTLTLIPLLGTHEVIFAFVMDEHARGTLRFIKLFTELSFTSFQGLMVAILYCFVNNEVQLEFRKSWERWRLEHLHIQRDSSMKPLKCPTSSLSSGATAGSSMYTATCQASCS

Sequence of human GLP-1R (Homo sapiens, UniProt P43220, G168S) (P43220 24-463 G168S limits assumed): as the sequence (P43220 24-463 L260F) above, with G145S, F237L counted along it

EC50 (human GLP-1R [1])	Emax (human GLP-1R [1])	EC50 (human GLP-1R [2])	Emax (human GLP-1R [2])	Compound
140 nM	72%	1600 nM	46%	COCCn1c(CN2CCC(c3cccc(OCc4ccc(Cl)cc4F)n3)CC2)nc2cnc(C(=O)O)cc21 [Example 2A-07, 2-[(4-{6-[(4-chloro-2-fluorobenzyl)oxy]pyridin-2-yl}piperidin-1-yl)methyl]-1-(2-methoxyethyl)-1H-imidazo[4,5-c]pyridine-6-carboxylic acid]
5.8 nM	72%	94 nM	76%	COCCn1c(CN2CCC(c3cccc(OCc4ccc(Cl)cc4F)n3)CC2)nc2ccc(C(=O)O)c(F)c21 [Example 2A-08, 2-[(4-{6-[(4-chloro-2-fluorobenzyl)oxy]pyridin-2-yl}piperidin-1-yl)methyl]-7-fluoro-1-(2-methoxyethyl)-1H-benzimidazole-6-carboxylic acid]
120 nM	76%	2200 nM	83%	Cn1c(CN2CCC(c3cccc(OCc4ccc(Cl)cc4F)n3)CC2)nc2cc(F)c(C(=O)O)cc21 [Example 2A-09, 2-[(4-{6-[(4-chloro-2-fluorobenzyl)oxy]pyridin-2-yl}piperidin-1-yl)methyl]-5-fluoro-1-methyl-1H-benzimidazole-6-carboxylic acid]
43 nM	82%	680 nM	110%	COCCn1c(CN2CCC(c3cccc(OCc4ccc(Cl)cc4F)n3)CC2)nc2ncc(C(=O)O)nc21 [Example 2A-10, 2-[(4-{6-[(4-chloro-2-fluorobenzyl)oxy]pyridin-2-yl}piperidin-1-yl)methyl]-1-(2-methoxyethyl)-1H-imidazo[4,5-b]pyrazine-6-carboxylic acid]
770 nM	78%	> 15000 nM	100%	Cn1c(CN2CCC(c3cccc(OCc4ccc(Cl)cc4F)n3)CC2)nc2cc(Cl)c(C(=O)O)cc21 [Example 2A-13, 5-chloro-2-[(4-{6-[(4-chloro-2-fluorobenzyl)oxy]pyridin-2-yl}piperidin-1-yl)methyl]-1-methyl-1H-benzimidazole-6-carboxylic acid]
110 nM	71%	3000 nM	92%	COCCn1c(CN2CCC(c3cccc(OCc4ccc(C#N)cc4)n3)CC2)nc2cc(F)c(C(=O)O)cc21 [Example 2A-14, 2-[(4-{6-[(4-cyanobenzyl)oxy]pyridin-2-yl}piperidin-1-yl)methyl]-5-fluoro-1-(2-methoxyethyl)-1H-benzimidazole-6-carboxylic acid]
22 nM	87%	280 nM	91%	COCCn1c(CN2CCC(c3cccc(OCc4ccc(C#N)cc4)n3)CC2)nc2ccc(C(=O)O)c(F)c21 [Example 2A-15, 2-[(4-{6-[(4-cyanobenzyl)oxy]pyridin-2-yl}piperidin-1-yl)methyl]-7-fluoro-1-(2-methoxyethyl)-1H-benzimidazole-6-carboxylic acid]
24 nM	76%	1200 nM	94%	COCCn1c(CN2CCC(c3cccc(OCc4ccc(Cl)cc4F)n3)CC2)nc2ccc(C(=O)O)nc21 [Example 2A-17, 2-[(4-{6-[(4-chloro-2-fluorobenzyl)oxy]pyridin-2-yl}piperidin-1-yl)methyl]-3-(2-methoxyethyl)-3H-imidazo[4,5-b]pyridine-5-carboxylic acid]
6 nM	80%	78 nM	88%	O=C(O)c1ccc2nc(CN3CCC(c4cccc(OCc5ccc(Cl)cc5F)n4)CC3)n(Cc3ncco3)c2n1 [Example 2A-18, 2-[(4-{6-[(4-chloro-2-fluorobenzyl)oxy]pyridin-2-yl}piperidin-1-yl)methyl]-3-(1,3-oxazol-2-ylmethyl)-3H-imidazo[4,5-b]pyridine-5-carboxylic acid]

Source: patent publication US10208019B2, “GLP-1 receptor agonists and uses thereof” (Pfizer Inc., priority 2016, dated 2019)
